Holding throughout (experiment): DTP human tumour cell line panel, 48 h
The test system of experiment [1] is CCRF-CEM leukemia.
The test system of experiment [2] is HOP-62 NSCLC.
In experiment [3] the test system is HOP-92 NSCLC.
The test system of experiment [4] is KM12 colon.
Experiment [5] concerns NCI-H23 lung.
Experiment [6] relates to NCI-H460 lung.
Experiment [7] relates to SF-295 CNS.
Experiment [8] has as its system SF-539 CNS.
The test system of experiment [9] is SK-MEL-2 melanoma.
The subject of experiment [10] is SK-OV-3 ovarian.

Experimental findings from PubChem BioAssay (NCI) are described below.

As a reminder, the GI50 is the concentration that inhibits growth by half. What is called TGI is the concentration giving total growth inhibition.

SMILES strings stand for the structures. Where “and” joins values, the source holds several entries; their conditions need not be identical. Equal values may be shown once.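 The compound was tested at five concentrations on cells cultured in 96-well plates, with a 48-hour exposure period. The concentration for 50% growth inhibition is given as GI50. TGI: total growth inhibition.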

Consider `NC(=O)c1ccc(Oc2nccc(-c3c(-c4ccc(F)cc4)ncn3C3CCNCC3)n2)cc1`, for which the GI50 in [1], in experiment [2], in [3], in experiment [4], in experiment [5] and in [6] was greater than 25 µM each time. For the same compound, the GI50 in [7], in [8], in experiment [9] and in experiment [10] was greater than 25 µM throughout. Further, the TGI in experiment [1], in experiment [2], in experiment [3], in experiment [4], in experiment [5] and in experiment [6] was greater than 25 µM in each case. For the same compound, the TGI in experiment [7], in [8], in experiment [9] and in experiment [10] was greater than 25 µM in each case.
As for `Cc1c(C#N)cccc1[C@@H](C)Nc1nnc(C)c2cnc(N3CCOCC3)cc12`, the GI50 was 39.2 µM in experiment [1]; 43.4 µM in experiment [2]; 0.175 µM in experiment [3]; 6.61 µM in experiment [4]; 15.3 µM in experiment [5]; 27.7 µM in [6]. Also, the GI50 was 21.9 µM in experiment [7], 43.1 µM in [8], 21.1 µM in experiment [9] and 31.3 µM in experiment [10]. The TGI in [1] was greater than 100 µM; in experiment [2] it was greater than 100 µM; in [3], 13.1 µM; in experiment [4] it was greater than 100 µM; in [5] it was greater than 100 µM; in [6], greater than 100 µM. The total growth inhibition concentration (TGI) is greater than 100 µM in experiment [7], greater than 100 µM in experiment [8], 64.6 µM in experiment [9] and greater than 100 µM in [10].
As to `CNCCCNc1nc2ccccc2c2c(=O)c3cc(OC)ccc3sc12`, the GI50 in experiment [1] is 2.39 µM; in experiment [2], 1.76 µM; in experiment [3] it was 1.35 µM; in [4], 1.83 µM; in experiment [5], 1.7 µM; in experiment [6], 1.67 µM. The GI50 is 1.82 µM in [7], 1.7 µM in experiment [8] and 2.04 µM in [9]. Besides, the TGI in experiment [1] came to 6.08 µM; in experiment [2], 3.76 µM; in experiment [3], 5.67 µM; in [4] it was 3.52 µM; in experiment [5], 3.19 µM; in [6], 3.13 µM. Moreover, the TGI in [7] was 3.34 µM; in [8], 3.1 µM; in [9], 4.44 µM.
With `CSc1cnc2ccccc2c1Sc1c[nH]c2ccccc2c1=O`, the concentration for total growth inhibition (TGI) in [1] was greater than 87.3 µM; in experiment [2] it was 43.6 µM; in experiment [3], 29.7 µM; in experiment [4] it was 22.2 µM; in experiment [5], 36.7 µM; in experiment [6], 22.8 µM. The TGI in experiment [7] is greater than 46.7 µM; in experiment [8] it was 31.1 µM; in [9], 34.6 µM; in [10] it was 14.8 µM.
Regarding `Cc1cc(-c2c(F)cc3c4nn([C@H]5CC[C@@H](N(C)C)CC5)c(=O)c-4cn(C4CC4)c3c2F)cc(C)n1`, the GI50 in [1] was 0.0033 µM; in experiment [2], 0.018 µM; in experiment [3] it was 0.244 µM; in experiment [5] it was 0.0207 µM; in experiment [8], 0.0561 µM; in experiment [9], 0.0735 µM. Moreover, the 50% growth inhibitory concentration (GI50) in experiment [10] was 0.0546 µM. Besides, the total growth inhibition concentration (TGI) was 0.0784 µM and 0.455 µM in experiment [2]; 1.11 µM in experiment [4]; 0.079 µM and 0.554 µM in [5]; 0.273 µM in experiment [6]; 0.717 µM in experiment [7]; 0.174 µM and 0.62 µM in experiment [8]. The total growth inhibition concentration (TGI) in [9] is 0.256 µM and 1.94 µM; in [10] it was 0.141 µM and 0.708 µM.
Turning to `O=C(O)CCNS(=O)(=O)c1ccc2ccccc2c1`, the concentration for total growth inhibition (TGI) in experiment [1], in experiment [3], in [4], in [5], in experiment [6] and in [7] was greater than 100 µM throughout. Besides, the TGI in experiment [8], in experiment [9] and in [10] was greater than 100 µM each time.
With `COc1ccccc1S(=O)(=O)Nc1ccc2c3c(cc(CCC(=O)NCCCCNc4cccc5c4C(=O)N(C4CCC(=O)NC4=O)C5=O)cc13)C(=O)N2C` (stereo not given), the GI50 in experiment [1] was 0.0315 µM; in [2], 0.416 µM; in [3], 0.0318 µM; in experiment [4], 0.697 µM; in experiment [5] it was 17 µM; in [6] it was greater than 100 µM. The GI50 is 3.75 µM in [7], 0.978 µM in experiment [8], 0.762 µM in experiment [9] and 1.4 µM in experiment [10]. Also, the total growth inhibition concentration (TGI) is 4.94 µM in [2]; 0.515 µM in [3]; greater than 100 µM in experiment [4]; greater than 100 µM in experiment [5]; greater than 100 µM in experiment [6]; greater than 100 µM in [7]. Further, the TGI in experiment [8] is greater than 100 µM; in experiment [9], greater than 27.4 µM; in experiment [10] it was greater than 100 µM.
With `COC(=O)Nc1nc2ccccc2[nH]1`, the TGI is greater than 100 µM in experiment [1]; greater than 100 µM in [2]; greater than 100 µM in experiment [3]; greater than 100 µM in experiment [4]; greater than 56.2 µM in experiment [5]; greater than 100 µM in experiment [6]. Moreover, the total growth inhibition concentration (TGI) is 32.9 µM in [7], 50.5 µM in [8], greater than 100 µM in experiment [9] and greater than 31.5 µM in experiment [10].
Take `CC1=C(SC#N)S(=O)(=O)N(c2ccccc2)C(C)=C1SC#N`: the TGI was 45.8 µM in experiment [1]; 88.7 µM in experiment [3]; greater than 100 µM in experiment [4]; greater than 100 µM in experiment [5]; greater than 100 µM in experiment [6]; 67.1 µM in [7]. The total growth inhibition concentration (TGI) in experiment [8] is greater than 100 µM; in experiment [9], greater than 100 µM; in experiment [10], 89.9 µM.
For the compound `CCOC(=O)C1=C(O)c2ccc(C)cc2C(=O)C1=O`, the TGI in [1] is greater than 100 µM; in experiment [2], greater than 100 µM; in [3], greater than 100 µM; in [4], greater than 100 µM; in [5], 98.8 µM; in experiment [6], greater than 100 µM. For the same compound, the TGI in experiment [7], in experiment [8], in [9] and in experiment [10] was greater than 100 µM in each case.
